Each structure is given as a SMILES string.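 Five compound concentrations were applied to cells in 96-well plates for 48 hours; endpoints were derived by simple linear interpolation of the resulting dose-response curve. At the TGI there is no net growth.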 Bounds are passed on as bounds.

From PubChem BioAssay (NCI) come the findings set out here.

What all share (assay): DTP human tumour cell line panel, 48 h
In assay [1] the test system is UO-31 renal.
The test system of assay [2] is UACC-257 melanoma.
The subject of assay [3] is RPMI-8226 leukemia.
Assay [4] relates to MDA-N.
Assay [5] has as its system SF-295 CNS.
Assay [6] deals with M14 melanoma.
Assay [7] concerns OVCAR-4 ovarian.
Assay [8] deals with NCI-H23 lung.
The test system of assay [9] is 786-0 renal.
Assay [10] relates to SR leukemia.
Assay [11] has as its system SN12C renal.
In assay [12] the test system is NCI-H522 lung.
Assay [13] has as its system SK-MEL-2 melanoma.
The subject of assay [14] is T-47D breast.
Assay [15] has as its system DU-145 prostate.
Assay [16] deals with KM12 colon.
The test system of assay [17] is PC-3 prostate.
The test system of assay [18] is HOP-62 NSCLC.
In assay [19] the test system is MDA-MB-231 breast.
For assay [20], the system named is UACC-62 melanoma.

Regarding `COC(=O)CSc1cc(Cl)c(C)cc1S(=O)(=O)Nc1n[nH]c(N)n1`, the TGI in [1], in assay [2], in [3], in assay [4], in assay [5] and in assay [6] was greater than 10 µM throughout. Also, the TGI in assay [7], in assay [8], in [9], in assay [10], in assay [11] and in assay [12] was greater than 10 µM in each case. The TGI in assay [13], in assay [14], in [15], in [16], in assay [17] and in [18] was greater than 10 µM each time.
Consider `CN1C(=O)C(O)CC1c1ccccc1F` (stereo not drawn), for which the TGI in assay [1], in [2], in assay [3], in assay [4], in assay [5] and in [6] was greater than 100 µM throughout. Besides, the TGI in assay [19], in assay [7], in assay [8], in assay [9], in assay [10] and in [11] was greater than 100 µM throughout. Moreover, the TGI in assay [12], in [13], in [20], in assay [15], in [16] and in assay [17] was greater than 100 µM throughout. The TGI in assay [18] was greater than 100 µM.
For the compound `CC(=O)Nc1ccc2cc(C#N)c(=O)[nH]c2n1`, the TGI in assay [1], in assay [2], in assay [3], in [4], in assay [5] and in assay [6] was greater than 100 µM each time. The TGI in [19], in assay [7], in assay [8], in assay [9], in [11] and in [12] was greater than 100 µM in each case. Moreover, the TGI in assay [13], in [14], in assay [16], in [17] and in [18] was greater than 100 µM each time.
For the compound `CCc1cccc(C(C)C)c1NC(=O)C(=O)Nn1c(=S)[nH]c2ccccc2c1=O`, the TGI in [1], in assay [2], in assay [3], in [4], in assay [5] and in assay [6] was greater than 100 µM throughout. For the same compound, the TGI in [19], in [7], in assay [8], in assay [9], in assay [10] and in [11] was greater than 100 µM in each case. The TGI in assay [12], in assay [13], in [14], in [20], in [16] and in assay [17] was greater than 100 µM throughout. Further, the TGI in assay [18] is greater than 100 µM.
Consider `S=c1[nH]nc(COc2ccc(Cl)cc2)n1-c1ccccc1`, for which the TGI in assay [1], in assay [2], in assay [4], in assay [5], in assay [6] and in assay [19] was greater than 100 µM throughout. Besides, the TGI in assay [7] was greater than 100 µM; in [8], greater than 100 µM; in assay [9], greater than 100 µM; in assay [11], greater than 100 µM; in [12], 23.3 µM; in assay [13], greater than 100 µM. The TGI in assay [14], in assay [20], in [15], in assay [16], in assay [17] and in assay [18] was greater than 100 µM throughout.
Regarding `COC(=O)c1ccccc1C1CN=NC12Cc1cc3c(cc1C2=O)CCC3` (stereo not drawn), the TGI in assay [1], in assay [2], in assay [4], in assay [5], in assay [6] and in assay [19] was greater than 100 µM each time. The TGI in assay [7], in assay [8], in assay [9], in assay [11], in [12] and in [13] was greater than 100 µM each time. In addition, the TGI in assay [14], in assay [20], in [15], in assay [16], in [17] and in [18] was greater than 100 µM throughout.
On to `COC1(OC)CCCCCCCCC(OC)(OC)CCCCCCCC1`, for which the TGI in assay [1] was 10.9 µM; in assay [2] it was greater than 100 µM; in assay [4], greater than 100 µM; in [5] it was greater than 100 µM; in [6], greater than 100 µM; in assay [8], greater than 100 µM. For the same compound, the TGI in [9], in [10], in assay [11], in assay [12], in [13] and in assay [14] was greater than 100 µM each time. Moreover, the TGI in [20], in assay [15], in [16], in [17] and in assay [18] was greater than 100 µM throughout.
For the compound `CN(C)CCNc1ncnc2nc(-c3ccccc3)c(-c3ccccc3)nc12`, the TGI in assay [1], in [2], in assay [4], in assay [6], in assay [19] and in [8] was greater than 100 µM throughout. In addition, the TGI in assay [9], in [11], in assay [12], in assay [13], in [14] and in [20] was greater than 100 µM in each case. The TGI in [15], in assay [16], in [17] and in assay [18] was greater than 100 µM each time.
Regarding `O=C1NC(=Nc2ccccc2Cl)N/C1=C\c1c(Cl)cccc1Cl`, the TGI in [1] is 66.3 µM; in assay [2] it was 79.8 µM; in assay [3], 56.6 µM; in assay [4] it was greater than 100 µM; in assay [5], greater than 100 µM; in [6], greater than 100 µM. The TGI in [7] was 49.3 µM; in assay [8] it was greater than 100 µM; in assay [9], greater than 100 µM; in assay [10], 48 µM; in assay [11], 84.6 µM; in assay [12] it was 58.7 µM. The total growth inhibition concentration (TGI) in assay [13] was greater than 100 µM; in assay [14], 81.1 µM; in [20], greater than 100 µM; in assay [15] it was greater than 100 µM; in [16], greater than 100 µM; in [17] it was 76.8 µM. The compound further displayed a TGI in assay [18] greater than 100 µM.
For `O=C(c1ccc(Cl)c(Cl)c1)N(C(=S)OC12CC3CC(CC(C3)C1)C2)c1ccccc1`, the TGI in [1] is 64.3 µM; in assay [2] it was greater than 100 µM; in assay [4], greater than 100 µM; in [5], greater than 100 µM; in [6] it was 48.3 µM; in [19], greater than 100 µM. The TGI is greater than 100 µM in assay [7]; greater than 100 µM in [8]; greater than 100 µM in assay [9]; greater than 100 µM in assay [11]; 41.7 µM in assay [12]; 40.5 µM in assay [13]. In addition, the TGI in [14] is greater than 100 µM; in assay [20], 98.5 µM; in assay [15] it was greater than 100 µM; in assay [16], greater than 100 µM; in [17] it was greater than 100 µM; in assay [18], greater than 100 µM.
For the compound `CCOC(=O)/C1=C(\C)N(Cc2ccccc2)C(=O)c2ccccc2C(=O)c2c(OC(C)=O)ccc(OC(C)=O)c21`, the TGI is greater than 100 µM in assay [1]; greater than 100 µM in assay [2]; 45.1 µM in assay [3]; greater than 100 µM in assay [4]; greater than 100 µM in assay [5]; greater than 100 µM in assay [19]. The TGI in assay [7], in assay [9], in assay [10], in assay [11], in assay [12] and in assay [13] was greater than 100 µM throughout. The TGI in [14], in [20], in [16] and in [18] was greater than 100 µM in each case.
As to `Cc1cc(N(C)c2ccccc2)nc(N(C)c2ccccc2)n1`, the TGI in assay [1] was greater than 100 µM; in assay [2] it was 57.7 µM; in [3] it was 65.1 µM; in assay [4], greater than 100 µM; in assay [5] it was 92.5 µM; in assay [6], greater than 100 µM. Moreover, the TGI is 78.9 µM in assay [19]; greater than 100 µM in assay [7]; greater than 100 µM in assay [8]; greater than 100 µM in assay [9]; 55.5 µM in assay [10]; greater than 100 µM in [11]. Also, the TGI in assay [12] was greater than 100 µM; in assay [13], 36.9 µM; in assay [20], greater than 100 µM; in [15] it was greater than 100 µM; in assay [16] it was 45.7 µM; in assay [17] it was greater than 100 µM. In assay [18], this compound gave a TGI of 72.8 µM.
In the case of `C=C(C)C1Cc2c(cc3c(c2O)c(=O)c2ccccc2n3C)O1` (stereo not drawn), the TGI in assay [1] is 4.01 µM; in [2], 30.7 µM; in [3], 9.72 µM; in assay [4] it was 12.2 µM; in [5], 18.2 µM; in assay [6] it was 10.6 µM. Also, the TGI worked out at 6.72 µM in [19]; 22.3 µM in [7]; 5.34 µM in assay [8]; 2.91 µM in assay [9]; 4.95 µM in assay [10]; 7.52 µM in assay [11]. Also, the TGI in assay [13] is 26.7 µM; in assay [14], 21 µM; in assay [20] it was 7.57 µM; in [16], 5.75 µM; in assay [17] it was 19.3 µM; in [18] it was 25.2 µM.
As for `COc1ccc(NCc2cccc3c(=O)c4ccc(Cl)cc4oc23)cc1`, the TGI in assay [1], in assay [2], in assay [3], in [4], in assay [5] and in assay [6] was greater than 100 µM throughout. Further, the TGI in assay [19], in [7], in assay [8], in assay [9], in [10] and in [11] was greater than 100 µM in each case. Besides, the TGI in assay [12], in [13], in [14], in assay [20], in [16] and in assay [17] was greater than 100 µM each time. This compound also yielded a TGI in [18] greater than 100 µM.
For the compound `O=S(=O)(N=[Se](=O)(c1ccccc1)c1ccccc1)c1ccccc1`, the TGI in assay [1], in [3], in assay [4], in assay [5], in assay [6] and in assay [19] was greater than 100 µM throughout. Besides, the TGI in assay [7], in assay [8], in assay [9], in assay [10], in assay [11] and in [12] was greater than 100 µM throughout. Also, the TGI in [13], in [14], in assay [16], in assay [17] and in [18] was greater than 100 µM in each case.
